Experimental data as given in patent US20110044943A1, “Anti-Viral Compounds, Compositions, And Methods Of Use” (priority 2007, published 2011).

Assay: Replicon Assay (luciferase, ET cell line)
Assay type: cell-based, HCV
Details: Hepatitis C virus; tested at 10 μM; inhibition of replication relative to no compound control; luciferase 48-72 hours
Text: A cell line, ET (Huh-lucubineo-ET) was used for screening of compounds, or pharmaceutically acceptable salts or solvates, described herein for inhibition of HCV RNA dependent RNA polymerase. The ET cell line was stably transfected with RNA transcripts harboring a I389luc-ubi-neo/NS3-3′/ET; replicon with firefly luciferase-ubiquitin-neomycin phosphotransferase fusion protein and EMCV-IRES driven NS3-5B polyprotein containing the cell culture adaptive mutations (E1202G; T1280I; K1846T) (Krieger at al, 2001 and unpublished). The ET cells were grown in DMEM, supplemented with 10% fetal calf serum, 2 mM Glutamine, Penicillin (100 IU/mL)/Streptomycin (100 μg/mL), 1× nonessential amino acids, and 250 μg/mL G418 (“Geneticin”). They were all available through Life Technologies (Bethesda, Md.). The cells were plated at 0.5-1.0×10^4 cells/well in the 96 well plates and incubated for 24 hrs before adding the test compounds. […] Luciferase activity was measured 48-72 hours later by adding a lysis buffer and the substrate (Catalog number Glo-lysis buffer E2661 and Bright-Glo luciferase system E2620 Promega, Madison, Wis.). […] Under the same condition, cytotoxicity of the compounds was determined using cell proliferation reagent, WST-1 (Roche, Germany). […] EC50 and similarly TC50 values were calculated by fitting % inhibition at each concentration to the following equation: […]

**Q.** Which inhibition at 10 µM does the source give for `Fc1cccc(-c2nc3cnn(Cc4cc(-c5ccc(Oc6ccccn6)cc5)no4)cc-3n2)c1F` [Compound 217] here?
**A.** Its inhibition at 10 µM is 85.3%.
